Holding throughout (test): Antifungal activity test (in vitro), MIC
Holding throughout (type): cell-based

In assay [1] the test system is Trichophyton mentagrophytes ATCC 9533. The following applies: ATCC9533. Here is the method: (§1) Minimum inhibitory concentration (MIC) of each of the compounds obtained in Examples 1 to 12 was measured for respective fungi at MOS Pharm Service, by the methods described in Antimicrobial Agents and Chemotherapy, vol. 3, pp. 40-48 (1973), Antimicrobial Agents and Chemotherapy, vol. 33, pp. 215-222 (1989) and Antimicrobial Agents and Chemotherapy, vol. 38, pp. 2362-2368 (1994). The measuring conditions are shown in the following. In this case, Voriconazol was used as a comparative compound. Trichophyton mentagrophytes ATCC 9533; Cultured at 28° C. for 3 days using fluid Sabouraud medium, and this was used as a cell suspension. Each of the compounds of the invention was adjusted to a concentration of 1% by weight using dimethyl sulfoxide (DMSO) and a medium similar to the respective medium used in the above-mentioned fungal culture, having a final concentration of from 0.001 to 100 μg/ml, was prepared. Each of the inoculation cell suspensions prepared by the above-mentioned methods was inoculated onto this agar plate. […] In this connection, Voriconazol was used as the comparative compound C-1.

The test system of assay [2] is Aspergillus niger ATCC 8740. Particulars: ATCC8740. Here is the method:
as §1, with “compound. Aspergillus niger” for “compound. Trichophyton mentagrophytes”, “ATCC 8740;” for “ATCC 9533;”, “for 2” for “for 3”, “using potato dextrose broth,” for “using fluid Sabouraud medium,”

Assay [3] has as its system Microsporum canis ATCC 36299. Particulars: ATCC36299. Here is the method: as §1, with “compound. Microsporum canis” for “compound. Trichophyton mentagrophytes”, “ATCC 36299;” for “ATCC 9533;”, “at 30°” for “at 28°”, “for 2” for “for 3”
The subject of assay [4] is Trichophyton rubrum ATCC 10218. Particulars: ATCC10218. Here is the method:
as §1, with “rubrum” for “mentagrophytes”, “10218;” for “9533;”

In assay [5] the test system is Pityrosporum ovale ATCC 38593. Particulars: Malassezia furfur, ATCC38593. As for the experimental part: as §1, with “Cryptococcus neoformans” for “Trichophyton mentagrophytes”, “24067, Pityrosporum ovale ATCC 38593;” for “9533;”, “37°” for “28°”, “2 day” for “3 days”
In assay [6] the test system is Cryptococcus neoformans ATCC 24067. Particulars: ATCC24067. Here is the method:
as §1, with “Cryptococcus neoformans” for “Trichophyton mentagrophytes”, “24067, Pityrosporum ovale ATCC 38593;” for “9533;”, “37°” for “28°”, “2 day” for “3 days”

Assay [7] has as its system Aspergillus fumigatus ATCC 1028. Particulars: ATCC1028. As for the experimental part:
Minimum inhibitory concentration (MIC) of each of the compounds obtained in Examples 1 to 12 was measured for respective fungi at MOS Pharm Service, by the methods described in Antimicrobial Agents and Chemotherapy, vol. 3, pp. 40-48 (1973), Antimicrobial Agents and Chemotherapy, vol. 33, pp. 215-222 (1989) and Antimicrobial Agents and Chemotherapy, vol. 38, pp. 2362-2368 (1994). The measuring conditions are shown in the following. In this case, Voriconazol was used as a comparative compound.
Aspergillus fumigatus ATCC 1028; Cultured at 28° C. for 2 days using potato dextrose broth, and this was used as a cell suspension.
Each of the compounds of the invention was adjusted to a concentration of 1% by weight using dimethyl sulfoxide (DMSO) and a medium similar to the respective medium used in the above-mentioned fungal culture, having a final concentration of from 0.001 to 100 μg/ml, was prepared. Each of the inoculation cell suspensions prepared by the above-mentioned methods was inoculated onto this agar plate. […] In this connection, Voriconazol was used as the comparative compound C-1.

Assay [8] concerns Candida albicans ATCC 44858. Particulars: ATCC44858. Here is the method:
as §1, with “Candida albicans” for “Trichophyton mentagrophytes”, “10231 and ATCC 44858;” for “9533;”, “37°” for “28°”, “20 hours” for “3 days”

Assay [9] relates to Candida albicans ATCC 10231. The following applies: ATCC10231. As for the experimental part: as §1, with “Candida albicans” for “Trichophyton mentagrophytes”, “10231 and ATCC 44858;” for “9533;”, “37°” for “28°”, “20 hours” for “3 days”

Molecules are shown by their SMILES. Converted amounts (≈) assume the structure as drawn.

For orientation: MIC means the lowest concentration that inhibits growth of the organism. Low values mean inhibition by little substance, high ones a need for much substance.

For `C[C@@H](c1ncncc1F)[C@](O)(Cn1cncn1)c1ccc(F)cc1F` [C-1, Voriconazol, reference compound], the MIC in assay [1] was found to be 0.1 µg/mL (≈ 0.286 µM); in [2], 0.1 µg/mL (≈ 0.286 µM); in [3] it was 3 µg/mL (≈ 8.59 µM); in assay [4], 0.3 µg/mL (≈ 0.859 µM); in assay [5], 0.3 µg/mL (≈ 0.859 µM); in assay [6], 0.1 µg/mL (≈ 0.286 µM). Also, the MIC in assay [7], in assay [8] and in assay [9] was 0.3 µg/mL (≈ 0.859 µM) each time.
